Columns and labels:
HIV = details: Phase I/II; cited from earlier work
[1] = test system: HIV-1 envelope-mediated fusion between HeLa-EnvJR-FL and PM1 cells
Protocol: HIV-1 envelope-mediated fusion between HeLa-EnvJR-FL and PM1 cells was detected using a Resonance Energy Transfer (RET) assay.
HIV-1 inhibition data were analyzed according to the Combination Index method of Chou and Talay.
Equation (1) is a generalized form of the equations describing Michaelis-Menton enzyme kinetics, Langmuir adsorption isotherms, and Henderson-Hasselbalch ionization equilibria, for which m=1 in all cases. In the present case, K is equal to the IC50 value. K and m are determined by curve-fitting the dose-response curves.
After the best-fit parameters for K and m are obtained for the experimental agents and their combination, Equation (1) is rearranged to allow for calculation of c for a given f.
All concentrations are those required to achieve a given degree of inhibition. Equation (2) is used when the molecules are mutually nonexclusive, i.e., have different sites of action. Since this is the likely scenario for inhibitors of HIV-1 attachment and gp41 fusion intermediates, Equation (2) was used for all Combination Index calculations. Mutually nonexclusive calculations provide a more conservative estimate of the degree of synergy that mutually exclusive calculations, for which the c1mc2m/c1c2 term is dropped. CI<1 indicates synergy, CI=1 indicates purely additive effects, and CI>1 indicates antagonism. In general, CI values are most relevant at the higher levels of inhibition that are required to achieve a measurable clinical benefit.

enfuvirtide
reduction of plasma HIV RNA levels (HIV): ≤ 2 logs
concentration of the individual agent contained in the combination giving 95% inhibition ([1]; 25:1 CD4-IgG2:T-20 mass ratio, calculated from known mass ratio): 0.044 µg/mL
Dose Reduction (ratio of inhibitor concentration alone v. in synergistic combination) ([1]; 95% inhibition, 25:1 CD4-IgG2:T-20 mass ratio): 5 fold
K, concentration of agent required to produce the median effect (equal to the IC50 value) ([1]; HeLa-EnvJR-FL and PM1 cells, RET after 4 h, mean of three independent experiments, best-fit to median effect equation, FIG. 1): 0.017 µg/mL
concentration required for inhibition of viral entry by 95% ([1]; agent used alone, or total concentration of the 25:1 combination, calculated from fitted K and m, FIG. 3): 0.21 µg/mL

From patent US6692745B2, “Compositions and methods for inhibition of HIV-1 infection” (priority 2000, dated 2004)
